According to patent US9061984B2 (University of Louisville Research Foundation, Inc., priority 2008, dated 2015):
≈ marks a conversion by molar mass, not a printed value. Where two headings read alike, the source gives them in different places.

What was measured:
[1] = system: Trypanosoma cruzi (Tulahuen C4); assay: In vitro anti-T. cruzi activity (β-galactosidase CPRG colorimetric assay in VERO monolayer); assay type: cell-based; conditions: for inhibition at 10 µg/mL / IC50: Trypanosoma cruzi, TULAHUEN, Vero; for inhibition at 10 µg/mL: 120 h, 10 μg/mL of each compound, 120 hours, read-out: T. cruzi Inhib. (%)
VERO cells [2] = assay: Cytotoxicity on VERO cells (MTT), anti-T. cruzi study; conditions: Chlorocebus sabaeus, Vero
[3] = as above; conditions: African green monkey, VERO cells
peritoneal macrophages = assay: Toxicity to peritoneal macrophages (Trypan Blue count); assay type: cell-based, BALB/C mouse; conditions: Mus musculus, Peritoneal macrophage, 48 h; Table 7; read-out: IC50 Macrophage
Method: (§1) Peritoneal macrophages were prepared as follows. Non-inflammatory macrophages (10^6) were collected from each BALB/C mouse. The cells adhered at 37° C. after 2 h under 5% CO2 in a CO2 incubator. The plates were then rinsed two to three times with 0.5 mL of RPMI+buffer MOPS without fetal calf serum to eliminate non-adhering cells. The supernatant on the plates was replaced by fresh medium (RPMI+glutamine+FCS+antibiotics), 0.5 mL of medium per well. To determine the toxicity of the compounds to macrophages, dilutions of compounds were added on a part of the macrophages prepared above. […] The medium was then removed and 1 μL of sterile Trypan Blue was added. Cover glasses N° 1 were left where cells were plated and then the number of macrophages in a microscope was determined with a haemocytometer. All experiments were performed in triplicate.

[4] = system: axenic amastigotes of L. amazonensis (strain MHOM/BR/76/LTB-012); assay: microbe, parasite or virus in culture; conditions: Leishmania amazonensis
MCF-7 cells = assay: Cell growth inhibition bioassay (sulforhodamine B); assay type: cell-based, human; conditions: Homo sapiens, MCF7; 48 h, SRB; read-out: GI50 in indicated cell line: MCF-7
Method: (§2) The cytotoxicity of compounds was assayed as follows. […] Appropriate solvent controls were tested for comparison. The percent inhibition of cell growth relative to the control was evaluated colorimetrically using a sulforhodamine B dye by comparison to the control. The calorimetric procedure followed that published in Skehan et al., J. Nat. Cancer Inst., […], pp. 1107-1112 (1990) and Boyd & Paull, Drug Dev. Res., Vol. 34, pp. 91-109 (1995). […] The cell lines are: 3T3 cells are BALB/3T3 clone A31 embryonic mouse fibroblast cells; H460 cells are human large cell lung cancer cells; DU145 cells are human prostate carcinoma cells; MCF-7 cells are human breast adenocarcinoma cells; M-14 cells are human melanoma cells; HT-29 cells are human colon adenocarcinoma cells; PC3 cells are human prostate adenocarcinoma cells; K562 cells are human chronic myelogenous leukemia cells; and VERO cells are African Green Monkey kidney epithelial cells.

DU145 cells = assay: Cell growth inhibition bioassay (sulforhodamine B); assay type: cell-based, human; conditions: Homo sapiens, DU-145; 48 h, SRB; read-out: GI50 in indicated cell line: DU145
Method: as §2

HT-29 cells = assay: Cell growth inhibition bioassay (sulforhodamine B); assay type: cell-based, human; conditions: Homo sapiens, HT-29; 48 h, SRB; read-out: GI50 in indicated cell line: HT-29
Method: as §2

M-14 cells = assay: Cell growth inhibition bioassay (sulforhodamine B); assay type: cell-based, human; conditions: Homo sapiens, M14; 48 h, SRB; read-out: GI50 in indicated cell line: M-14
Method: as §2

H460 cells = assay: Cell growth inhibition bioassay (sulforhodamine B); assay type: cell-based, human; conditions: Homo sapiens, NCI-H460; 48 h, SRB; read-out: GI50 in indicated cell line: H460
Method: as §2

K562 cells = assay: Cell growth inhibition bioassay (sulforhodamine B); assay type: cell-based, human; conditions: Homo sapiens, K562; 48 h, SRB; read-out: GI50 in indicated cell line: K562
Method: as §2

[5] = system: axenic amastigotes of L. amazonensis (strain MHOM/BR/76/LTB-012); conditions: Table 8b
M. tuberculosis H37Rv = assay: Conventional aerobic (MABA) culture assay, luminescence MIC; assay type: cell-based, Mycobacterium tuberculosis; conditions: Mycobacterium tuberculosis, 168 h; aerobic, 7 days, H37Rv
L. peruviana LCA08 = assay: Activity against macrophages infected with Leishmania amastigotes; conditions: Leishmania peruviana, Macrophage, read-out: IC50 L. peruviana LCA08
Method: (§3) A cloned line of Leishmania amazonensis(strain MHOM/BR/76/LTB-012) was used in all experiments. Axenically grown amastigote forms of L. amazonensis were maintained by weekly subpassages in MAA/20 medium (Sereno and Lemesre, Antimicrobial Agents and Chemotherapy 41, 972-976 (1997)) at 32±1° C. in 25 cm^2 tissue culture flasks. L. peruviana (strain MHOM/PE/LCA08) and L. braziliensis (strainMHOM/PE/PER006) were maintained in the promastigote stage in a biphasic medium (blood agar with 0.89% NaCl, pH 7.4) at 24° C., with sub-passage every 3 to 4 days. Promastigotes (5×10^6 parasites) were then transferred to 25 cm2 tissue culture flasks containing 5 ml of M199 medium supplemented with 10% foetal bovine serum (FBS), pH 7.4. After 4 days, exponential phase promastigotes were centrifuged for 10 minutes at 1500 g and 4° C. The supernatant was discarded and replaced by fresh M199 medium supplemented with 20% FBS, pH 5.5. Axenic amastigotes transformation was then induced by increasing the temperature to 34° C. and incubating for 96 h (Teixeira et al., Parasitology Research 88, 963-968 (2002)).
(§4) Extracted cells were immediately deposited on sterile 4×4 mm cover glasses and placed in each well of a 96-well plate. Plates were incubated for 24 h at 37° C., 5% CO2 to allow cell adhesion (Castillo et al, Journal of Ethnopharmacology 112, 410-414 (2007)). Pre-warmed complete M199 medium was used twice to remove non-adherent cells. A neutral red method (Fautz et al., Mutation Research 253, 173-179 (1991)) was employed to determine cell concentration. Approximately 7×10^4 viable cells were deposited in each well for adhesion.
(§5) Infection of macrophages by amastigotes was determined as follows. […] Twelve hours after infection, a solution of the compounds to be tested was added to the cultures at various concentrations and maintained at 37° C. in 5% CO2 for a further forty-eight hours more. The plates were fixed with methanol and stained with 10% Giemsa stain. The percentage of infected macrophages was determined microscopically at 100 times magnification. The number of intracellular amastigotes was determined in 300 cells. Following Delorenzi et al. Antimicrobial Agents and Chemotherapy, 45, 1349-1354 (2001)) the percentage of infection rate (% IR) of each culture was calculated as follows: % IR=100−(infection rate of the treated culture/infection rate of the untreated culture)×100.
(§6) All experiments were performed in triplicate. ANOVA was used to test for statistical significance of differences (Epi-Info, Statview student program). The total parasite burden was calculated as a mean number of amastigotes per cells multiplied by the number of infected macrophages.

[6] = Toxicity to peritoneal macrophages (Trypan Blue count); assay type: cell-based, BALB/C mouse; conditions: BALB/C, mouse, Cytotoxicity Macrophages IC50
Method: as §1

3T3 cells = assay: Cell growth inhibition bioassay (sulforhodamine B); assay type: cell-based, mouse; conditions: Mus musculus, NIH3T3; 48 h, SRB; read-out: GI50 in indicated cell line: 3T3
Method: as §2

VERO cells [7] = assay: Cell growth inhibition bioassay (sulforhodamine B); assay type: cell-based, African Green Monkey; conditions: Chlorocebus sabaeus, Vero; 48 h, SRB; read-out: GI50 in indicated cell line: VERO
Method: as §2

L. braziliensis PER006 = assay: Activity against macrophages infected with Leishmania amastigotes; conditions: Leishmania braziliensis, Macrophage, read-out: IC50 L. braziliensis PER006
Method: as §3, §4, §5, §6

[8] = Table 2, read-out: IC50 - T. cruzi
[9] = Table 3, read-out: IC50 T. cruzi
[10] = IC50 - VERO Cytotoxicity, Table 2
[11] = 72 h, read-out: IC50 L. amazonensis

C=CCOc1cc(OC)c(C(=O)/C=C/c2ccc([N+](=O)[O-])cc2)c(OCC=C)c1 [Compound I-13, (2E)-1-[2-Methoxy-4,6-bis(2-propenyloxy)phenyl]-3-(4-nitrophenyl)-2-propen-1-one]
inhibition at 10 µg/mL [1]: 68.6%
IC50 [1, 8]: 1.62 µg/mL
IC50 [1, 9]: 4.1 µM
IC50 (VERO cells [2]; read-out: IC50 VERO, Table 3): 12.6 µM
IC50 [3, 10]: 5 µg/mL (≈ 12.6 µM)
IC50 (peritoneal macrophages): 13.2 µM
IC50 [4, 11]: 8.3 µM

C=CCOc1cc(OC)c(C(=O)/C=C/c2ccccc2)c(OCC=C)c1 [Compound I-08, (2E)-1-[2-Methoxy-4,6-bis(2-propenyloxy)phenyl]-3-(phenyl)-2-propen-1-one]
inhibition at 10 µg/mL [1]: 71.5%
IC50 [1, 8]: 6.7 µg/mL
IC50 [1, 9]: 17.1 µM
IC50 (VERO cells [2]; read-out: IC50 VERO): 17.1 µM
IC50 [3, 10]: 6 µg/mL (≈ 17.1 µM)
IC50 (peritoneal macrophages): 14.8 µM
IC50 [4, 11]: 9.4 µM

C=CCOc1cc(OC)c(C(=O)/C=C/c2ccc(F)cc2)c(OCC=C)c1 [Compound I-23, (2E)-3-(4-Fluorophenyl)-1-[2-methoxy-4,6-bis(2-propenyloxy)phenyl]-2-propen-1-one]
inhibition at 10 µg/mL [1]: 66.5%
IC50 [1, 8]: 5.27 µg/mL
IC50 [1, 9]: 14.3 µM
IC50 (VERO cells [2]; read-out: IC50 VERO, Table 3): 13.6 µM
IC50 [3, 10]: 5 µg/mL (≈ 13.6 µM)
IC50 (peritoneal macrophages): 13.8 µM
IC50 [4, 11]: 9.5 µM

Brc1ccc(/C=N\Nc2ncnc3sc4c(c23)CCCC4)cc1 [II-30]
GI50 (MCF-7 cells): 2.3 µg/mL (≈ 5.94 µM)
GI50 (DU145 cells): 5.6 µg/mL (≈ 14.5 µM)
GI50 (HT-29 cells): 4.8 µg/mL (≈ 12.4 µM)
GI50 (M-14 cells): 13 µg/mL (≈ 33.6 µM)
GI50 (H460 cells): 4.1 µg/mL (≈ 10.6 µM)
GI50 (K562 cells): 2.2 µg/mL (≈ 5.68 µM)
Selectivity Index [5]: 8.8
Selectivity Index Lab B ([1]; IC50, VERO/IC50, T. cruzi, Lab B): 0.8
IC50 ([1]; Lab A, read-out: T. cruzi IC50 Lab A): 1.1 µg/mL
IC50 ([1]; Lab B, read-out: T. cruzi IC50 Lab B): 7.9 µg/mL
MIC (M. tuberculosis H37Rv): > 100 µg/mL
IC50 (L. peruviana LCA08): > 0.5 µg/mL
IC50 ([3]; Cytotoxicity VERO Lab B, Lab B): 6 µg/mL (≈ 15.5 µM)
IC50 at 48 h [6]: 3 µM
GI50 (3T3 cells): 6.8 µg/mL (≈ 17.6 µM)
IC50 ([4]; read-out: L. amazonensis IC50): 0.3 µM
GI50 (VERO cells [7]): 2.8 µg/mL (≈ 7.23 µM)
IC50 (L. braziliensis PER006): > 0.5 µg/mL

C=CCOc1cc(OC)c(C(=O)/C=C/c2cccc(OC)c2)c(OCC=C)c1 [Compound I-11, (2E)-1-[2-Methoxy-4,6-bis(2-propenyloxy)phenyl]-3-(3-methoxyphenyl)-2-propen-1-one]
inhibition at 10 µg/mL [1]: 72.4%
IC50 [1, 8]: 5.37 µg/mL
IC50 [1, 9]: 14.2 µM
IC50 (VERO cells [2]; read-out: IC50 VERO, Table 3): 142 µM
IC50 [3, 10]: 54 µg/mL (≈ 142 µM)
IC50 (peritoneal macrophages): 13.1 µM
IC50 [4, 11]: 8.7 µM

C=CCOc1cc(OC)c(C(=O)/C=C/c2ccc(Cl)cc2)c(OCC=C)c1 [Compound I-14, (2E)-3-(4-Chlorophenyl)-1-[2-methoxy-4,6-bis(2-propenyloxy)phenyl]-2-propen-1-one]
inhibition at 10 µg/mL [1]: 66.3%
IC50 [1, 8]: 3.3 µg/mL
IC50 [1, 9]: 8.6 µM
IC50 (VERO cells [2]; read-out: IC50 VERO, Table 3): 10.4 µM
IC50 [3, 10]: 4 µg/mL (≈ 10.4 µM)
IC50 (peritoneal macrophages): 13 µM
IC50 [4, 11]: 9.4 µM
